Here are results for 18 compounds from PubChem BioAssay (NCI).

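Growth conditions: 96-well plates. Treatment: test compound, 48 hours, 5 concentrations. Analysis: linear interpolation between bracketing concentrations; unreached endpoints set to highest concentration. The concentration for 50% growth inhibition is given as GI50. TGI: concentration producing complete growth inhibition.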

The test system of the first assay is HS 578T breast. The assay is described as follows: NCI-60 cell line screen, 48 h.
For the compound `COc1ccc(-c2oc3cc(O)c(OC)c(O)c3c(=O)c2OC)cc1O`, the GI50 is 0.037 µM and the TGI was determined as 0.715 µM.
Take `Cc1c(C2=C(Br)C(=O)N(C)C2=O)c(=O)n(C)c(=O)n1C`: the TGI was greater than 100 µM.
On to `Cc1cc(N/N=C/c2nc(-c3ccc(Br)cc3)oc2C)c2cc(Br)ccc2n1`, for which the GI50 was 4.21 µM and the TGI came to 26.2 µM.
In turn, `CC(C)OC(=O)NNc1cc(Cl)ccc1Cl` displayed a TGI greater than 100 µM.
For `Cc1cc(C2CC(O)C(CO)O2)cc2c(=O)[nH]c(N)nc12` (stereo not given), the GI50 is greater than 100 µM and the TGI was greater than 100 µM.
As to `Cc1cc2c(cc1Cl)SC(=Nc1ccc(Cl)cc1)N(S(=O)(=O)c1ccccc1)S2(=O)=O`, the GI50 is 20.7 µM and the TGI turned out to be 45.9 µM.
On the same counts, the results for `Cc1ccc(S(=O)(=O)NCCNc2nccc(-c3c(-c4ccc(F)cc4)nc4sccn34)n2)cc1` are 7.7 µM and 75.5 µM.
The corresponding values for `C=C1C(=O)O[C@H]2[C@H]1CC/C(COC(=O)c1ccc(Cl)nc1)=C\CC[C@@]1(C)O[C@@H]21` are 4.56 µM and 36.2 µM.
The compound `C=C1C(=O)O[C@H]2/C=C(/C)C3=CC(=O)[C@@](C)(C[C@@H](OC(=O)/C(C)=C\C)C12)O3` (stereo not given in full) had a TGI of 57.1 µM.
Take `O=C(CSC(c1ccccc1)c1ccccc1)N/N=C/c1ccc(Cl)cc1Cl`: the GI50 is 34.8 µM and the TGI is greater than 100 µM.

For the next assay, the system named is KM12 colon. The assay is described as follows: NCI-60 cell line screen, 48 h.
For `N#C/C(=C/N1CCN(C(=O)c2ccco2)C1=S)C(=O)c1ccccc1`, the GI50 is 6.49 µM and the TGI is greater than 100 µM.
On the same counts, the results for `CN(CCCNC(=O)Cc1ccc2ccc3cccc4ccc1c2c34)CCCNc1cc(-c2ccc3ccccc3c2)nc2ccccc12` are 1.36 µM and 2.69 µM.
The corresponding values for `COCCOc1cnc2ccn([C@H](C)c3nnc4c(F)cc(-c5cnn(C)c5)cn34)c(=O)c2c1` are 24.4 µM and greater than 100 µM.
On the same counts, the results for `O=C(Nc1ccc(-n2cc(-c3ccncc3)c(-c3ccc(Cl)c(O)c3)n2)cc1)Nc1ccc(Cl)c(C(F)(F)F)c1` are 1.47 µM and 3.01 µM.
As for `Cc1cc(S(=O)(=O)N/N=C(\Sc2cc(Cl)c(C)cc2S(N)(=O)=O)c2ccc(Cl)cc2)c(Cl)cc1Cl`, the GI50 is greater than 100 µM and the TGI is greater than 100 µM.
For the compound `COc1ccc(C(=O)COc2cccc(/C=C3\Oc4ccc5ccccc5c4C3=O)c2)cc1`, the GI50 was 3.39 µM and the TGI stood at 14.6 µM.
On the same counts, the results for `COc1ccc(-c2oc3cc(O)c(OC)c(O)c3c(=O)c2OC)cc1O` are 0.437 µM and 20.9 µM.
For `Cc1c(C2=C(Br)C(=O)N(C)C2=O)c(=O)n(C)c(=O)n1C`, the TGI is greater than 100 µM.
Consider `Cc1cc(N/N=C/c2nc(-c3ccc(Br)cc3)oc2C)c2cc(Br)ccc2n1`, for which the GI50 was 2.25 µM and the TGI amounted to 5.71 µM.
`CC(C)OC(=O)NNc1cc(Cl)ccc1Cl` came in with a TGI greater than 100 µM.
Turning to `COc1ccc2c(O)cc3c(c2c1)[C@H](CCl)CN3C(=O)c1cc2cc(NC(=O)CCN3CCOCC3)ccc2[se]1`, the GI50 is less than 0.001 µM.
Turning to `CC(C)N=c1cc2n(-c3ccc(Cl)cc3)c3ccccc3nc-2cc1Nc1ccc(Cl)cc1`, the GI50 was 1.18 µM and the TGI is greater than 50 µM.
`Cc1cc2c(cc1Cl)SC(=Nc1ccc(Cl)cc1)N(S(=O)(=O)c1ccccc1)S2(=O)=O`: the GI50 is 20 µM and the TGI was 50.4 µM.
On the same counts, the results for `C=C1C(=O)O[C@H]2[C@H]1CC/C(COC(=O)c1ccc(Cl)nc1)=C\CC[C@@]1(C)O[C@@H]21` are 3.96 µM and 16.7 µM.
For the compound `C=C1C(=O)O[C@H]2/C=C(/C)C3=CC(=O)[C@@](C)(C[C@@H](OC(=O)/C(C)=C\C)C12)O3` (stereo not given in full), the TGI turned out to be 9.5 µM.
Turning to `O=C(CSC(c1ccccc1)c1ccccc1)N/N=C/c1ccc(Cl)cc1Cl`, the GI50 is 16.6 µM and the TGI was determined as 38.9 µM.

A further assay relates to MALME-3M melanoma. The assay is described as follows: NCI-60 cell line screen, 48 h.
Consider `N#C/C(=C/N1CCN(C(=O)c2ccco2)C1=S)C(=O)c1ccccc1`, for which the GI50 is 30.7 µM and the TGI is greater than 100 µM.
Take `COCCOc1cnc2ccn([C@H](C)c3nnc4c(F)cc(-c5cnn(C)c5)cn34)c(=O)c2c1`: the GI50 is greater than 100 µM and the TGI is greater than 100 µM.
On to `COc1ccc(C(=O)COc2cccc(/C=C3\Oc4ccc5ccccc5c4C3=O)c2)cc1`, for which the GI50 was 1.74 µM and the TGI came to 5.51 µM.
The corresponding values for `Cc1cc(N/N=C/c2nc(-c3ccc(Br)cc3)oc2C)c2cc(Br)ccc2n1` are 2.1 µM and 4.48 µM.
In the case of `CC(C)OC(=O)NNc1cc(Cl)ccc1Cl`, the TGI was greater than 100 µM.
For `COc1ccc2c(O)cc3c(c2c1)[C@H](CCl)CN3C(=O)c1cc2cc(NC(=O)CCN3CCOCC3)ccc2[se]1`, the GI50 was less than 0.001 µM and the TGI was less than 0.001 µM.
`Cc1ccc(S(=O)(=O)NCCNc2nccc(-c3c(-c4ccc(F)cc4)nc4sccn34)n2)cc1`: the GI50 is 5.07 µM and the TGI was greater than 100 µM.
On the same counts, the results for `C=C1C(=O)O[C@H]2[C@H]1CC/C(COC(=O)c1ccc(Cl)nc1)=C\CC[C@@]1(C)O[C@@H]21` are 2.12 µM and 4.19 µM.
Take `O=C(CSC(c1ccccc1)c1ccccc1)N/N=C/c1ccc(Cl)cc1Cl`: the GI50 is 16 µM and the TGI turned out to be 42 µM.

A further assay deals with MDA-MB-231 breast. Put plainly: NCI-60 cell line screen, 48 h.
For `N#C/C(=C/N1CCN(C(=O)c2ccco2)C1=S)C(=O)c1ccccc1`, the GI50 was 13.7 µM and the TGI amounted to 40.8 µM.
On the same counts, the results for `CN(CCCNC(=O)Cc1ccc2ccc3cccc4ccc1c2c34)CCCNc1cc(-c2ccc3ccccc3c2)nc2ccccc12` are 1.54 µM and 3.04 µM.
Take `COCCOc1cnc2ccn([C@H](C)c3nnc4c(F)cc(-c5cnn(C)c5)cn34)c(=O)c2c1`: the GI50 is greater than 100 µM and the TGI was greater than 100 µM.
On to `O=C(Nc1ccc(-n2cc(-c3ccncc3)c(-c3ccc(Cl)c(O)c3)n2)cc1)Nc1ccc(Cl)c(C(F)(F)F)c1`, for which the GI50 is 1.66 µM and the TGI worked out at 3.31 µM.
